The target in one test is BACE-1 (Homo sapiens (Human), UniProt P56817). The test can be described thus: BACE-1 Cellular Assay (Aβ in HEK293-APPswe/lon cells). Type of test: cell-based. The settings on record: 4 hours. Put shortly:
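HEK293 cells stably expressing human APP with Swedish and London FAD mutations, cultured at 37° C., 5% CO2. Aβ40 or Aβ42 in conditioned media measured by electrochemiluminescent ELISA (WO2 capture; G2-10 or G2-11 detection). IC50 from variable-slope sigmoidal fit of signal versus compound concentration.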

The test system of a further test is CSF Aβ40. Kind of test: Aβ Reduction In Vivo (rat CSF Aβ40). The following applies: male CD IGS rats, 10 mg/kg oral gavage, CSF at 3 hours, change vs vehicle. The protocol:
Assay 5: Aβ Reduction In Vivo
The in vivo efficacy and/or potency of BACE inhibitors (test compounds) can be evaluated using a variety of animal models, including mouse, rat, dog, and monkey, and these animals can be wild type, transgenic, or gene knockout animals.
Generally, animals are administered (by oral gavage, intravenous injection, or by other suitable route) a test compound in doses ranging from, for example, 0.1 mg/kg (mg of compound per kg of animal body weight) to 100 mg/kg formulated in vehicles, such as cyclodextrin, phosphate buffer, hydroxypropyl methylcellulose or other suitable vehicles. One to twenty-four hours following the administration of compound, animals are sacrificed, and tissues (for example, brain, cerebrospinal fluid (CSF), and/or plasma) are collected for analysis of Aβ levels and/or test compound concentrations (Dovey et al., 2001, Journal of Neurochemistry, 76, 173-181). Tissue samples are processed appropriately and then analyzed for the presence of Aβ by specific sandwich ELISA assays based on electrochemiluminescence (ECL) technology.
For example, in the following assay for which data are reported below, male CD IGS rats (body weight approximately 120 g, Charles River Laboratories, Kingston, N.Y.) were used to assess lowering of CSF levels of Aβ1-40 (Aβ40) in the presence of compounds of the invention. At time 0, animals were administered by oral gavage a test compound at a dose of 10 mg/kg in 20% hydroxypropyl-β-cyclodextrin (dosing volume 5 mL/kg). A separate group of animals received 20% hydroxypropyl-β-cyclodextrin alone to serve as the vehicle control group. Three hours after administration, the rats were euthanized with excess CO2. Immediately following euthanasia, CSF was collected from the cisterna magna and quickly frozen on dry ice. Samples were stored at −80° C. until quantification of Aβ40 levels.
The measurement of endogenous rat Aβ40 in CSF relied on the 585 antibody (Ab585, BioSource, NONO585), which specifically recognizes the N-terminal sequence of rodent Aβ40, and on the monoclonal antibody, G2-10, which specifically recognizes the free C-terminus of Aβ40. Ab585 was labeled with biotin (b-Ab585) by first dialyzing the antibody sample extensively versus PBS (pH 7.8) to remove impurities, followed by dilution to between 1 and 2 mg/mL protein concentration. EZ-Link Sulfo-NHS-LC-Biotin (Pierce) was dissolved in PBS (pH 7.8) at a concentration of 1 mg/mL immediately prior to use. Ab585 was labeled with EZ-Link Sulfo-NHS-LC-biotin using a 10:1 biotin:antibody ratio by incubation at room temperature for 1 hour. The labeling reaction was quenched by addition of 1.0 M glycine to a final concentration of 0.1 M followed by 10 minute incubation at room temperature. Glycine was removed by extensive dialysis versus PBS.
For rat CSF Aβ40 determinations, a calibration curve of various concentrations of synthetic rodent Aβ40 was assayed in parallel with rat CSF samples in duplicate using an avidin-coated 96-well MSD plate (Mesoscale Diagnostics). Either 50 μL of rodent Aβ40 standards diluted in PBS (pH 7.4) supplemented with 1% BSA and 1% Tween-20 (standard diluent buffer) or 40 μL of standard diluent buffer plus 10 μL rat CSF were added to each 96 well avidin-coated plate. To each well was added 50 μL of 0.1 M HEPES (pH 7.5), 2% BSA, 2% Tween-20, 0.3 M NaCl (2×Aβ40 buffer) supplemented with the b-Ab585 capture and ruthenylated-G2-10 detection antibodies diluted to 1 μg/mL and 0.5 μg/mL, respectively. Plates were shaken for 1 min on a microplate shaker, covered to protect from light and incubated overnight (˜16 h) at 4° C. For detection, plates were first washed twice with 100 μL of 1×CSF Aβ40 buffer followed by addition of 160 μL of 1×MSD read buffer-T (Mesoscale Diagnostics) diluted in 1×CSF Aβ40 buffer. Plates were read on a MSD Sector Imager 2400 model (Mesoscale Diagnosotics). […]

BACE-1, sequence (P56817 46-501): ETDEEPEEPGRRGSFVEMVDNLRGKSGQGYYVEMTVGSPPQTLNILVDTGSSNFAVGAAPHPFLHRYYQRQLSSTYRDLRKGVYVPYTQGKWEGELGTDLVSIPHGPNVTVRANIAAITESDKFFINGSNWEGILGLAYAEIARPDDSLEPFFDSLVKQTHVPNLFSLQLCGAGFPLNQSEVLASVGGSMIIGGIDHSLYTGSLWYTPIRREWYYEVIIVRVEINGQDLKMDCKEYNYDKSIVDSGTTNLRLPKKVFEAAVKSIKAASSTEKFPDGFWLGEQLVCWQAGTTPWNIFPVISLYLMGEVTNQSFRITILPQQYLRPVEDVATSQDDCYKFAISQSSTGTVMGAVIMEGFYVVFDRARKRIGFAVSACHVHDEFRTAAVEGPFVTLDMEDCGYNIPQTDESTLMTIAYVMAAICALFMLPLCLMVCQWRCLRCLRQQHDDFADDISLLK

On to `CC1(C)C(=N)N[C@](C)(c2cc(Nc3noc4cc(F)cnc34)ccc2F)CS1(=O)=O` [WO′426 Ex. 30b, reference compound], for which, on BACE-1, the IC50 (commonly the concentration at which inhibition is half-maximal) is 82 nM. The “Aβ reduction in vivo in rat (Δ% CSF Aβ40 @ 10 mpk)” value with CSF Aβ40 is “+6%”.

`C[C@@]1(c2nc(Nc3nccc4cc(C#N)cnc34)ncc2F)CS(=O)(=O)[C@@](C)(C2CC2)C(N)=N1` [Example 5, 8-({4-[(3R,6S)-6-cyclopropyl-5-imino-3,6-dimethyl-1,1-dioxidothiomorpholin-3-yl]-5-fluoropyrimidin-2-yl}amino)-1,7-naphthyridine-3-carbonitrile] had an IC50 against BACE-1 of 10 nM.

Regarding `COc1cnc2c(Nc3ccc(F)c([C@]4(C)CS(=O)(=O)[C@@](C)(C5CC5)C(N)=N4)c3)nccc2c1` [Example 14, N-{3-[(3R,6S)-6-cyclopropyl-5-imino-3,6-dimethyl-1,1-dioxidothiomorpholin-3-yl]-4-fluorophenyl}-3-methoxy-1,7-naphthyridin-8-amine], the IC50 at BACE-1 stood at 21 nM.

As to `C[C@@]1(c2cc(Nc3ncnc4cc(C#N)cnc34)ccc2F)CS(=O)(=O)[C@@](C)(C2CC2)C(N)=N1` [Example 16, 4-({3-[(3R,6S)-6-cyclopropyl-5-imino-3,6-dimethyl-1,1-dioxidothiomorpholin-3-yl]-4-fluorophenyl}amino)pyrido[3,2-d]pyrimidine-7-carbonitrile], the IC50 on BACE-1 is 2.6 nM. Besides, the “Aβ reduction in vivo in rat (Δ% CSF Aβ40 @ 10 mpk)” value with CSF Aβ40 is on record as −85%.

`COc1cnc2c(Nc3cc([C@]4(C)CS(=O)(=O)[C@@](C)(C5CC5)C(N)=N4)c(F)cn3)nccc2c1` [Example 6, N-{4-[(3R,6S)-6-cyclopropyl-5-imino-3,6-dimethyl-1,1-dioxidothiomorpholin-3-yl]-5-fluoropyridin-2-yl}-3-methoxy-1,7-naphthyridin-8-amine] returned a 50% inhibitory concentration (IC50) on BACE-1 of 3 nM. Moreover, the “Aβ reduction in vivo in rat (Δ% CSF Aβ40 @ 10 mpk)” value in the test on CSF Aβ40 is recorded as −92%.

`COc1cnc2c(Nc3ccc(F)c([C@]4(C)CS(=O)(=O)[C@@](C)(C5CC5)C(N)=N4)c3)ncnc2n1` [Example 22, (2S,5R)-2-cyclopropyl-5-(2-fluoro-5-((7-methoxypteridin-4-yl)amino)phenyl)-3-imino-2,5-dimethylthiomorpholine 1,1-dioxide]: on BACE-1, the IC50 amounted to 15 nM. In addition, the “Aβ reduction in vivo in rat (Δ% CSF Aβ40 @ 10 mpk)” value with CSF Aβ40 is −70%.

On BACE-1, `C[C@@]1(c2cc(Nc3nccc4cc(C#N)cnc34)ccc2F)CS(=O)(=O)[C@@](C)(C2CC2)C(N)=N1` [Example 18, 8-({3-[(3R,6S)-6-cyclopropyl-5-imino-3,6-dimethyl-1,1-dioxidothiomorpholin-3-yl]-4-fluorophenyl}amino)-1,7-naphthyridine-3-carbonitrile] came in with an IC50 of 4.8 nM. Also, in the test with CSF Aβ40, the “Aβ reduction in vivo in rat (Δ% CSF Aβ40 @ 10 mpk)” value is reported as −87%.

As for `COc1cnc2c(Nc3ccc(F)c([C@]4(C)CS(=O)(=O)C(C)(C)C(N)=N4)c3)nccc2n1` [Ex 47 of WO2014059185, reference compound], the “Aβ reduction in vivo in rat (Δ% CSF Aβ40 @ 10 mpk)” value in the test on CSF Aβ40 is −88%.

Values taken from patent US9732088B2, “C2-carbocyclic iminothiazine dioxides as BACE inhibitors, compositions, and their use” (Merck Sharp & Dohme Corp., priority 2014, dated 2017).
